# Assay results taken from patent US20060252807A1, “Novel ortho-terphenyl inhibitors of p38 kinase and methods of treating inflammatory disorders” (Kalypsys, Inc., priority 2005, published 2006).
# Biological target: T1, active p38 alpha enzyme (Upstate Biotechnology) (Homo sapiens, UniProt Q16539)
# T1 construct: purchased Upstate Biotechnology
# Assay: p38α biochemical assay (ATP turnover, luminescent detection, Cambrex PKlight)
# Settings: p38α kinase; Table 1 Biological Activity
# How it was run: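 Luminescent ATP-depletion readout measures total ATP turnover by p38α phosphorylating whole MapkapK2 protein. ATP 1.4 uM final; 30C, 2 h. Compounds delivered from DMSO.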
# T1 sequence (Q16539 whole entry): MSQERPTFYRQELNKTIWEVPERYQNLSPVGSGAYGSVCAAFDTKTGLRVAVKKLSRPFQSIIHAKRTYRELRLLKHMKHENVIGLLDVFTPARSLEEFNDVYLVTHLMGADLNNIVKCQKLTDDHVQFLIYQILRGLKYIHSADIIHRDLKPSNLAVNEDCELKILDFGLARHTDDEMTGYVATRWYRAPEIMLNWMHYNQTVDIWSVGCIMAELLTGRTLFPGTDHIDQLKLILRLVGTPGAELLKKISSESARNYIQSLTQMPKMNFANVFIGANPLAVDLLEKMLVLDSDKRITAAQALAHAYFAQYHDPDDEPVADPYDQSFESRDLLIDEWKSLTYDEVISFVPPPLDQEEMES
row,SMILES,IC50 [µM]
1,COc1ccc(N2CCN(Cc3onc(-c4ccc(F)cc4)c3-c3nc(C(=O)NC(C)C)cs3)CC2)cc1 [Example 1595],> 1
2,COc1ccccc1N1CCN(Cc2onc(-c3ccc(F)cc3)c2-c2nc(C(=O)NC(C)C)cs2)CC1 [Example 1596],> 1
3,COc1cccc(N2CCN(Cc3onc(-c4ccc(F)cc4)c3-c3nc(C(=O)NC(C)C)cs3)CC2)c1 [Example 1597],> 1
4,COc1ccc(CCN(C)Cc2onc(-c3ccc(F)cc3)c2-c2nc(C(=O)NC(C)C)cs2)cc1OC [Example 1598],> 1
5,CC(C)NC(=O)c1csc(-c2c(-c3ccc(F)cc3)noc2CN2CCN(c3cccc(Cl)c3)CC2)n1 [Example 1599],> 1
6,CC(C)NC(=O)c1csc(-c2c(-c3ccc(F)cc3)noc2CN2CCN(c3ccc(Cl)cc3)CC2)n1 [Example 1600],> 1
7,CC(C)NC(=O)c1csc(-c2c(-c3ccc(F)cc3)noc2CN2CCN(c3ccc(F)cc3F)CC2)n1 [Example 1602],> 1
8,CC(C)NC(=O)c1csc(-c2c(-c3ccc(F)cc3)noc2CN(Cc2cccnc2)Cc2cccnc2)n1 [Example 1603],> 1
9,CC(C)NC(=O)c1csc(-c2c(-c3ccc(F)cc3)noc2CN2CCN(CCN3CCOCC3)CC2)n1 [Example 1604],> 1
10,CC(C)NC(=O)c1csc(-c2c(-c3ccc(F)cc3)noc2CN2CCC(N(C)C(=O)OC(C)(C)C)C2)n1 (stereo not drawn) [Example 1605],> 1
11,CC(=O)c1ccc(N2CCN(Cc3onc(-c4ccc(F)cc4)c3-c3nc(C(=O)NC(C)C)cs3)CC2)cc1 [Example 1606],> 1
12,CCN(CC)CCN(Cc1ccccc1)Cc1onc(-c2ccc(F)cc2)c1-c1nc(C(=O)NC(C)C)cs1 [Example 1607],> 1
13,CC(C)NC(=O)c1csc(-c2c(-c3ccc(F)cc3)noc2CN2CCN(c3ccc([N+](=O)[O-])cc3)CC2)n1 [Example 1608],> 1
14,CC(C)NC(=O)c1csc(-c2c(-c3ccc(F)cc3)noc2CN(C)Cc2cccc3ccccc23)n1 [Example 1609],> 1
15,Cc1ccc(Cl)cc1N1CCN(Cc2onc(-c3ccc(F)cc3)c2-c2nc(C(=O)NC(C)C)cs2)CC1 [Example 1610],> 1
16,COc1cc(CN(C)Cc2onc(-c3ccc(F)cc3)c2-c2nc(C(=O)NC(C)C)cs2)cc(OC)c1OC [Example 1611],> 1
17,CC(C)NC(=O)c1csc(-c2c(-c3ccc(F)cc3)noc2CN(CCc2ccccc2)Cc2ccccc2)n1 [Example 1612],> 1
18,CC(C)NC(=O)c1csc(-c2c(-c3ccc(F)cc3)noc2CN(C)C(Cc2ccccc2)c2ccccc2)n1 (stereo not drawn) [Example 1614],> 1

row,SMILES,IC50 [µM]
1,CC(C)NC(=O)c1csc(-c2c(-c3ccc(F)cc3)noc2CN2CCC(O)(c3ccc(Cl)cc3)CC2)n1 [Example 1615],> 1
2,C#CCN(Cc1ccc(Cl)cc1Cl)Cc1onc(-c2ccc(F)cc2)c1-c1nc(C(=O)NC(C)C)cs1 [Example 1616],> 1
3,CC(C)NC(=O)c1csc(-c2c(-c3ccc(F)cc3)noc2CN2CCN(C(=O)OC(C)(C)C)C[C@H]2CO)n1 [Example 1618],> 1
4,CC(C)NC(=O)c1csc(-c2c(-c3ccc(F)cc3)noc2CN2CCN(c3ccc(C(C)(C)C)cc3)CC2)n1 [Example 1619],> 1
5,CC(C)NC(=O)c1csc(-c2c(-c3ccc(F)cc3)noc2CN2CCN(Cc3ccc4c(c3)OCO4)CC2)n1 [Example 1620],> 1
6,COc1cc2c(cc1OC)CN(Cc1onc(-c3ccc(F)cc3)c1-c1nc(C(=O)NC(C)C)cs1)CC2 [Example 1621],> 1
7,CC(C)NC(=O)c1csc(-c2c(-c3ccc(F)cc3)noc2CN2CCN(c3ccc(C(F)(F)F)cc3)CC2)n1 [Example 1622],> 1
8,CC(C)NC(=O)c1csc(-c2c(-c3ccc(F)cc3)noc2CN2CCN(c3cccc(C(F)(F)F)c3)CC2)n1 [Example 1623],> 1
9,CC(C)NC(=O)c1csc(-c2c(-c3ccc(F)cc3)noc2CN2CCN(c3ccc(Cl)c(Cl)c3)CC2)n1 [Example 1624],> 1
10,CC(C)NC(=O)c1csc(-c2c(-c3ccc(F)cc3)noc2CN2CCN(c3ccc(C(F)(F)F)cn3)CC2)n1 [Example 1626],> 1
11,CC(C)NC(=O)c1csc(-c2c(-c3ccc(F)cc3)noc2CN2CCN(c3ccccc3Cl)CC2)n1 [Example 1627],> 1
12,COc1ccc(N2CCN(Cc3onc(-c4ccc(F)cc4)c3-c3nc(C(=O)NC(C)C)cs3)CC2)cc1OC [Example 1628],> 1
13,CC(C)NC(=O)c1csc(-c2c(-c3ccc(F)cc3)noc2CN2CCCC(c3ccc(C(F)(F)F)cc3)C2)n1 (stereo not drawn) [Example 1629],> 1
14,CC(C)NC(=O)c1csc(-c2c(-c3ccc(F)cc3)noc2CNc2ccccc2)n1 [Example 1630],> 1
15,Cc1cccc(NCc2onc(-c3ccc(F)cc3)c2-c2nc(C(=O)NC(C)C)cs2)c1 [Example 1631],> 1
16,Cc1ccc(NCc2onc(-c3ccc(F)cc3)c2-c2nc(C(=O)NC(C)C)cs2)cc1 [Example 1632],> 1
17,Cc1ccccc1NCc1onc(-c2ccc(F)cc2)c1-c1nc(C(=O)NC(C)C)cs1 [Example 1633],> 1
18,Cc1ccc(NCc2onc(-c3ccc(F)cc3)c2-c2nc(C(=O)NC(C)C)cs2)nc1 [Example 1634],> 1

# Second part, the compound after the results:
row,IC50 [µM],SMILES
1,> 1,CC(C)NC(=O)c1csc(-c2c(-c3ccc(F)cc3)noc2CN2CCC(O)(O)CC2)n1 [Example 1561]
2,> 1,CCOC(=O)C1CCN(Cc2onc(-c3ccc(F)cc3)c2-c2nc(C(=O)NC(C)C)cs2)CC1 [Example 1562]
3,> 1,CCOC(=O)C1CCCN(Cc2onc(-c3ccc(F)cc3)c2-c2nc(C(=O)NC(C)C)cs2)C1 (stereo not drawn) [Example 1563]
4,> 1,CCOC(=O)N1CCN(Cc2onc(-c3ccc(F)cc3)c2-c2nc(C(=O)NC(C)C)cs2)CC1 [Example 1564]
5,> 1,CC(C)NC(=O)c1csc(-c2c(-c3ccc(F)cc3)noc2CN(CCC#N)Cc2cccnc2)n1 [Example 1566]
6,> 1,CC(C)NC(=O)c1csc(-c2c(-c3ccc(F)cc3)noc2CN2CCN(c3ccccc3)CC2)n1 [Example 1567]
7,> 1,CC(C)NC(=O)c1csc(-c2c(-c3ccc(F)cc3)noc2CN2CCN(c3ccccn3)CC2)n1 [Example 1568]
8,> 1,CCCCN(Cc1ccccc1)Cc1onc(-c2ccc(F)cc2)c1-c1nc(C(=O)NC(C)C)cs1 [Example 1569]
9,> 1,CC(C)NC(=O)c1csc(-c2c(-c3ccc(F)cc3)noc2CN(CCO)[C@H](C)c2ccccc2)n1 [Example 1570]
10,> 1,CC(C)NC(=O)c1csc(-c2c(-c3ccc(F)cc3)noc2CN(CCCO)Cc2ccccn2)n1 [Example 1571]
11,> 1,CC(C)NC(=O)c1csc(-c2c(-c3ccc(F)cc3)noc2CN(C)CC(O)c2ccc(O)cc2)n1 (stereo not drawn) [Example 1572]
12,> 1,CC(C)NC(=O)c1csc(-c2c(-c3ccc(F)cc3)noc2CN2CCN(C3CCCCC3)CC2)n1 [Example 1573]
13,> 1,CC(C)NC(=O)c1csc(-c2c(-c3ccc(F)cc3)noc2CN2CCC(Cc3ccccc3)CC2)n1 [Example 1574]
14,> 1,CC(C)NC(=O)c1csc(-c2c(-c3ccc(F)cc3)noc2CN2CCN(Cc3ccccc3)CC2)n1 [Example 1575]
15,> 1,CC(C)NC(=O)c1csc(-c2c(-c3ccc(F)cc3)noc2CN2CCCN(Cc3ccccc3)CC2)n1 [Example 1576]
16,> 1,CC(C)NC(=O)c1csc(-c2c(-c3ccc(F)cc3)noc2CN2CCN(c3ccc(O)cc3)CC2)n1 [Example 1577]
17,> 1,CC(C)NC(=O)c1csc(-c2c(-c3ccc(F)cc3)noc2CN(CCN(C)C)Cc2ccccc2)n1 [Example 1578]

row,IC50 [µM],SMILES
1,> 1,CC(C)NC(=O)c1csc(-c2c(-c3ccc(F)cc3)noc2CN2CCN(c3ccccc3F)CC2)n1 [Example 1579]
2,> 1,CC(C)NC(=O)C1=CSC(c2c(-c3ccc(F)cc3)noc2CN2CCN(c3ccc(F)cc3)CC2)=NC1 [Example 1580]
3,> 1,CC(C)NC(=O)c1csc(-c2c(-c3ccc(F)cc3)noc2CN2CCN(CC3CCCCC3)CC2)n1 [Example 1581]
4,> 1,CC(C)NC(=O)c1csc(-c2c(-c3ccc(F)cc3)noc2CN(C)C[C@H](O)c2ccc(O)c(O)c2)n1 [Example 1582]
5,> 1,CCOC(=O)CC1C(=O)NCCN1Cc1onc(-c2ccc(F)cc2)c1-c1nc(C(=O)NC(C)C)cs1 (stereo not drawn) [Example 1583]
6,> 1,CC(C)NC(=O)c1csc(-c2c(-c3ccc(F)cc3)noc2CN2CCN(C(=O)OC(C)(C)C)CC2)n1 [Example 1584]
7,> 1,CC(C)NC(=O)c1csc(-c2c(-c3ccc(F)cc3)noc2CN2CCC(NC(=O)OC(C)(C)C)C2)n1 (stereo not drawn) [Example 1585]
8,> 1,CC(C)NC(=O)c1csc(-c2c(-c3ccc(F)cc3)noc2CN2CCN(c3ccccc3C#N)CC2)n1 [Example 1586]
9,> 1,CC(C)NC(=O)c1csc(-c2c(-c3ccc(F)cc3)noc2CN2CCN(c3ccc(C#N)cn3)CC2)n1 [Example 1587]
10,> 1,Cc1cccc(N2CCN(Cc3onc(-c4ccc(F)cc4)c3-c3nc(C(=O)NC(C)C)cs3)CC2)c1C [Example 1588]
11,> 1,Cc1cccc(N2CCN(Cc3onc(-c4ccc(F)cc4)c3-c3nc(C(=O)NC(C)C)cs3)CC2C)c1 (stereo not drawn) [Example 1590]
12,> 1,CC(C)NC(=O)c1csc(-c2c(-c3ccc(F)cc3)noc2CN2CCN(CCc3ccccc3)CC2)n1 [Example 1591]
13,> 1,Cc1ccc(N2CCN(Cc3onc(-c4ccc(F)cc4)c3-c3nc(C(=O)NC(C)C)cs3)CC2)cc1C [Example 1592]
14,> 1,Cc1ccc(N2CCN(Cc3onc(-c4ccc(F)cc4)c3-c3nc(C(=O)NC(C)C)cs3)CC2)c(C)c1 [Example 1593]
15,> 1,Cc1ccc(C)c(N2CCN(Cc3onc(-c4ccc(F)cc4)c3-c3nc(C(=O)NC(C)C)cs3)CC2)c1 [Example 1594]
16,≤ 1,CCN(Cc1onc(-c2ccc(F)cc2)c1-c1nc(C(=O)NC(C)C)cs1)C(Cc1ccccc1)c1ccco1 (stereo not drawn) [Example 1617]
